Data as given in patent publication US11866518B2, “Bicyclic peptide ligands specific for TSLP” (BicycleTx Limited, priority 2020, dated 2024).
*1 amine or outer side, *2 acyl side, *3 side chain or, on linkers, in order; H or OH if unused. Where a SMILES comes first, the peptide text is derived from it. Bridges are numbered along the chain shown (N, C = ends). [ ]: non-standard residue; d: D form. TATA = O=C(CC[*:1])N1CN(C(=O)CC[*:2])CN(C(=O)CC[*:3])C1; Dap = NC[C@H](N)C(=O)O

Target: TSLP (Homo sapiens, UniProt Q969D9)
Test: Human TSLP Surface Plasmon Resonance (SPR) binding assay
Design: The resulting construct spCD33-6×HN-TEV-hTSLP(29-159)-Avi; 6xHN tag with TEV site (N, cleaved yes); made in house; host or cells: Expi293F cells
Details: biotinylated human TSLP immobilized on streptavidin chip; 20° C.; steady-state or kinetic 1:1 fit; read-out: hTSLP SPR Kd

Sequence of TSLP (Q969D9 29-159): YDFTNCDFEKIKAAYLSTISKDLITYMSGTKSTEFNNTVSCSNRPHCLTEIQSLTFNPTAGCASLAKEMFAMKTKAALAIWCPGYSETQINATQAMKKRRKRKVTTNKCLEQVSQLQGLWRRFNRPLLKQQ

Row | SMILES | Kd
1 | CC(=O)N[C@H]1CSCCC(=O)N2CN3CN(C2)C(=O)CCSC[C@H](NC(=O)[C@H](CC(=O)O)NC(=O)[C@H](CCC(=O)O)NC(=O)[C@H](CC(C)C)NC(=O)[C@H](Cc2c[nH]c4ccccc24)NC(=O)[C@H](CCC(N)=O)NC1=O)C(=O)N[C@@H](Cc1c[nH]c2ccccc12)C(=O)N[C@@H](CCCNC(=N)N)C(=O)NCC(=O)N[C@@H](CCc1ccccc1)C(=O)N[C@H](C(N)=O)CSCCC3=O [Example 148, Ac-(SEQ ID NO: 107)] | 1100 nM
2 | CC(=O)N[C@H]1CSCCC(=O)N2CN3CN(C2)C(=O)CCSC[C@H](NC(=O)[C@H](CC(=O)O)NC(=O)[C@H](CCC(=O)O)NC(=O)[C@H](CC(C)C)NC(=O)[C@H](Cc2c[nH]c4ccccc24)NC(=O)[C@H](CCC(N)=O)NC1=O)C(=O)N[C@@H](Cc1c[nH]c2ccccc12)C(=O)N[C@@H](C)C(=O)NCC(=O)N[C@@H](Cc1ccccc1)C(=O)N[C@H](C(N)=O)CSCCC3=O [Example 149, Ac-(SEQ ID NO: 108)] | 1100 nM
3 | CC[C@H](C)[C@@H]1NC(=O)[C@H]([C@@H](C)O)NC(=O)[C@@H](NC(=O)[C@H](C)N)CSCCC(=O)N2CN3CN(C2)C(=O)CCSC[C@H](NC(=O)[C@H](CC(=O)O)NC(=O)[C@H](CCC(=O)O)NC(=O)[C@H](CC(C)C)NC1=O)C(=O)N[C@@H](Cc1c[nH]c2ccccc12)C(=O)N[C@@H](CCSC)C(=O)NCC(=O)N[C@@H](Cc1ccccc1)C(=O)N[C@H](C(=O)N[C@@H](C)C(N)=O)CSCCC3=O [Example 150, A-(SEQ ID NO: 109)-A] | 1500 nM
4 | CC(=O)N[C@H]1CSCCC(=O)N2CN3CN(C2)C(=O)CCSC[C@H](NC(=O)[C@H](CC(=O)O)NC(=O)[C@H](CCC(=O)O)NC(=O)[C@H](CC(C)C)NC(=O)[C@H](Cc2c[nH]c4ccccc24)NC(=O)[C@H](CCC(N)=O)NC1=O)C(=O)N[C@@H](Cc1c[nH]c2ccccc12)C(=O)N[C@@H](CCCNC(=N)N)C(=O)NCC(=O)N[C@@H](Cc1c(F)c(F)c(F)c(F)c1F)C(=O)N[C@H](C(N)=O)CSCCC3=O [Example 153, Ac-(SEQ ID NO: 112)] | 2700 nM
5 | CC(=O)N[C@H]1CSCCC(=O)N2CN3CN(C2)C(=O)CCSC[C@H](NC(=O)[C@H](CC(=O)O)NC(=O)[C@H](CCC(=O)O)NC(=O)[C@H](CC(C)C)NC(=O)[C@H](Cc2c[nH]c4ccccc24)NC(=O)[C@H](CCC(N)=O)NC1=O)C(=O)N[C@@H](Cc1c[nH]c2ccccc12)C(=O)N[C@@H](CN)C(=O)NCC(=O)N[C@@H](Cc1ccccc1)C(=O)N[C@H](C(N)=O)CSCCC3=O [Example 155, Ac-(SEQ ID NO: 114)] | 3200 nM
6 | CC(C)C[C@@H]1NC(=O)[C@H](Cc2c[nH]c3ccccc23)NC(=O)[C@H](CCC(N)=O)NC(=O)[C@@H](N)CSCCC(=O)N2CN3CN(C2)C(=O)CCSC[C@H](NC(=O)[C@H](CC(=O)O)NC(=O)[C@H](CCC(=O)O)NC1=O)C(=O)N[C@@H](Cc1c[nH]c2ccccc12)C(=O)N[C@@H](CN)C(=O)NCC(=O)N[C@@H](Cc1ccccc1)C(=O)N[C@H](C(N)=O)CSCCC3=O [Example 156, (SEQ ID NO: 114)] | 3300 nM
7 | CC(=O)N[C@H]1CSCCC(=O)N2CN3CN(C2)C(=O)CCSC[C@H](NC(=O)[C@H](CC(=O)O)NC(=O)[C@H](CCC(=O)O)NC(=O)[C@H](CC(C)C)NC(=O)[C@H](Cc2c[nH]c4ccccc24)NC(=O)[C@H](CCC(N)=O)NC1=O)C(=O)N[C@@H](Cc1c[nH]c2ccccc12)C(=O)N[C@@H](CCCNC(=N)N)C(=O)NCC(=O)N[C@@H](Cc1ccncc1)C(=O)N[C@H](C(N)=O)CSCCC3=O [Example 157, Ac-(SEQ ID NO: 115)] | 3900 nM
8 | CC(=O)N[C@H]1CSCCC(=O)N2CN3CN(C2)C(=O)CCSC[C@H](NC(=O)[C@H](CC(=O)O)NC(=O)[C@H](CCC(=O)O)NC(=O)[C@H](CC(C)C)NC(=O)[C@H](Cc2c[nH]c4ccccc24)NC(=O)[C@H](CCC(N)=O)NC1=O)C(=O)N[C@@H](Cc1c[nH]c2ccccc12)C(=O)N[C@@H](CCCNC(=N)N)C(=O)NCC(=O)N[C@@H](Cc1cccnc1)C(=O)N[C@H](C(N)=O)CSCCC3=O [Example 158, Ac-(SEQ ID NO: 116)] | 5400 nM
9 | CC(=O)N[C@H]1CSCCC(=O)N2CN3CN(C2)C(=O)CCSC[C@H](NC(=O)[C@H](CC(N)=O)NC(=O)[C@H](CCC(=O)O)NC(=O)[C@H](CC(C)C)NC(=O)[C@H](Cc2c[nH]c4ccccc24)NC(=O)[C@H](Cc2c[nH]cn2)NC1=O)C(=O)N[C@@H](Cc1c[nH]c2ccccc12)C(=O)N[C@@H](CN)C(=O)NCC(=O)N[C@@H](Cc1ccccc1)C(=O)N[C@H](C(N)=O)CSCCC3=O [Example 159, Ac-(SEQ ID NO: 117)] (Ac-CHWLENCW[Dap]GFC-NH2; linker 1-7-12 via TATA; C-terminus assumed) | 5600 nM
10 | CC(C)C[C@@H]1NC(=O)[C@H](CO)NC(=O)[C@H](CCC(=O)O)NC(=O)[C@@H](NC(=O)[C@H](C)N)CSCCC(=O)N2CN3CN(C2)C(=O)CCSC[C@H](NC(=O)[C@H](CO)NC(=O)[C@H](Cc2c[nH]c4ccccc24)NC(=O)[C@@H]2CCCN2C(=O)[C@H](CC(=O)O)NC1=O)C(=O)N1CCC[C@H]1C(=O)N[C@@H](C(C)C)C(=O)N[C@@H](Cc1c[nH]c2ccccc12)C(=O)N[C@@H](Cc1c[nH]c2ccccc12)C(=O)N[C@@H](CCCNC(=N)N)C(=O)N[C@H](C(=O)N[C@@H](C)C(N)=O)CSCCC3=O [Example 161, A-(SEQ ID NO: 119)-A] (H-ACESLDPWSCPVWWRCA-NH2; linker 2-10-16 via TATA; N-terminus and C-terminus assumed) | 890 nM
11 | CC(C)C[C@@H]1NC(=O)[C@H](CO)NC(=O)[C@@H]2CCCN2C(=O)[C@@H](NC(=O)[C@H](C)N)CSCCC(=O)N2CN3CN(C2)C(=O)CCSC[C@H](NC(=O)[C@H]([C@@H](C)O)NC(=O)[C@H](Cc2c[nH]c4ccccc24)NC(=O)[C@@H]2CCCN2C(=O)[C@H](CC(=O)O)NC1=O)C(=O)N[C@@H](CCC(N)=O)C(=O)N[C@@H](CO)C(=O)N[C@@H](Cc1c[nH]c2ccccc12)C(=O)N[C@@H](Cc1ccc(O)cc1)C(=O)N[C@@H](CCC(=O)O)C(=O)N[C@H](C(=O)N[C@@H](C)C(N)=O)CSCCC3=O [Example 162, A-(SEQ ID NO: 120)-A] | 1500 nM
12 | CC(C)C[C@@H]1NC(=O)[C@H](CC(=O)O)NC(=O)[C@H](CCCCN)NC(=O)[C@@H](NC(=O)[C@H](C)N)CSCCC(=O)N2CN3CN(C2)C(=O)CCSC[C@H](NC(=O)[C@H]([C@@H](C)O)NC(=O)[C@H](Cc2c[nH]c4ccccc24)NC(=O)[C@@H]2CCCN2C(=O)[C@H](CC(=O)O)NC1=O)C(=O)N[C@@H](CO)C(=O)N[C@@H](CO)C(=O)N[C@@H](Cc1c[nH]c2ccccc12)C(=O)N[C@@H](Cc1c[nH]c2ccccc12)C(=O)N[C@@H](CCC(=O)O)C(=O)N[C@H](C(=O)N[C@@H](C)C(=O)N1CCC[C@H]1C(=O)N[C@@H](CC(N)=O)C(N)=O)CSCCC3=O [Example 167, A-(SEQ ID NO: 125)-APN] (H-ACKDLDPWTCSSWWECAPN-NH2; linker 2-10-16 via TATA; N-terminus assumed) | 170 nM
13 | CC(C)C[C@@H]1NC(=O)[C@H](Cc2c[nH]c3ccccc23)NC(=O)[C@H](Cc2c[nH]c3ccccc23)NC(=O)[C@H](CCC(=O)O)NC(=O)[C@H](CCC(=O)O)NC(=O)[C@@H]2CSCCC(=O)N3CN(CN(C3)C(=O)CCSC[C@@H](C(=O)N[C@@H](C)C(=O)N[C@@H](Cc3c[nH]cn3)C(=O)N3CCC[C@H]3C(N)=O)NC1=O)C(=O)CCSC[C@H](NC(=O)[C@H](C)N)C(=O)N[C@@H](CCCNC(=N)N)C(=O)N[C@@H](CC(=O)O)C(=O)N[C@@H](CC(C)C)C(=O)N[C@@H](CC(=O)O)C(=O)N1CCC[C@H]1C(=O)N[C@@H](Cc1c[nH]c3ccccc13)C(=O)N[C@@H]([C@@H](C)O)C(=O)N2 [Example 170, A-(SEQ ID NO: 128)-AHP] (H-ACRDLDPWTCEEWWLCAHP-NH2; linker 2-10-16 via TATA; N-terminus and C-terminus assumed) | 170 nM
14 | CC(C)C[C@@H]1NC(=O)[C@H](Cc2c[nH]c3ccccc23)NC(=O)[C@H](Cc2c[nH]c3ccccc23)NC(=O)[C@H](CO)NC(=O)[C@H](CO)NC(=O)[C@@H]2CSCCC(=O)N3CN(CN(C3)C(=O)CCSC[C@H](NC(=O)[C@@H](NC(=O)[C@H](CC(=O)O)NC(=O)[C@H](CCCNC(=N)N)NC(=O)[C@H](CCC(N)=O)NC(=O)[C@H](Cc3ccc(O)cc3)NC(=O)[C@@H](N)CCC(=O)O)C(C)C)C(=O)N[C@@H](CCCNC(=N)N)C(=O)N[C@@H](CC(=O)O)C(=O)N[C@@H](CC(C)C)C(=O)N[C@@H](CC(=O)O)C(=O)N3CCC[C@H]3C(=O)N[C@@H](Cc3c[nH]c4ccccc34)C(=O)N[C@@H]([C@@H](C)O)C(=O)N2)C(=O)CCSC[C@@H](C(=O)N[C@@H](C)C(N)=O)NC1=O [Example 173, EYQRDV-(SEQ ID NO: 122)-A] | 77 nM
15 | CC(C)C[C@@H]1NC(=O)[C@H](Cc2c[nH]c3ccccc23)NC(=O)[C@H](Cc2c[nH]c3ccccc23)NC(=O)[C@H](CO)NC(=O)[C@H](CO)NC(=O)[C@@H]2CSCCC(=O)N3CN(CN(C3)C(=O)CCSC[C@@H](C(=O)N[C@@H](CO)C(=O)N[C@@H](CCC(=O)O)C(=O)N[C@@H](CO)C(=O)N[C@H](C(=O)N[C@@H](Cc3c[nH]cn3)C(=O)N[C@H](C(=O)N[C@@H](C)C(N)=O)[C@@H](C)O)C(C)C)NC1=O)C(=O)CCSC[C@H](NC(=O)[C@H](C)N)C(=O)N[C@@H](CCCNC(=N)N)C(=O)N[C@@H](CC(=O)O)C(=O)N[C@@H](CC(C)C)C(=O)N[C@@H](CC(=O)O)C(=O)N1CCC[C@H]1C(=O)N[C@@H](Cc1c[nH]c3ccccc13)C(=O)N[C@@H]([C@@H](C)O)C(=O)N2 [Example 175, A-(SEQ ID NO: 122)-SESVHTA] | 240 nM
